# Data published in article PMC4979471 (Cell Death Discovery, 2015).
# Read-outs that look alike come from different tables or passages of the source.
# What was measured:
# Assay in all cases: Kinase selectivity, P33-radiolabeled assay
# Format in all cases: biochemical
# Conditions in all cases: 10 μM ATP
# [1] = biological target: T1, TEC (Homo sapiens, UniProt P42680)
# T1 construct: purchased Reaction Biology Corp
# T1 sequence (P42680 1-631): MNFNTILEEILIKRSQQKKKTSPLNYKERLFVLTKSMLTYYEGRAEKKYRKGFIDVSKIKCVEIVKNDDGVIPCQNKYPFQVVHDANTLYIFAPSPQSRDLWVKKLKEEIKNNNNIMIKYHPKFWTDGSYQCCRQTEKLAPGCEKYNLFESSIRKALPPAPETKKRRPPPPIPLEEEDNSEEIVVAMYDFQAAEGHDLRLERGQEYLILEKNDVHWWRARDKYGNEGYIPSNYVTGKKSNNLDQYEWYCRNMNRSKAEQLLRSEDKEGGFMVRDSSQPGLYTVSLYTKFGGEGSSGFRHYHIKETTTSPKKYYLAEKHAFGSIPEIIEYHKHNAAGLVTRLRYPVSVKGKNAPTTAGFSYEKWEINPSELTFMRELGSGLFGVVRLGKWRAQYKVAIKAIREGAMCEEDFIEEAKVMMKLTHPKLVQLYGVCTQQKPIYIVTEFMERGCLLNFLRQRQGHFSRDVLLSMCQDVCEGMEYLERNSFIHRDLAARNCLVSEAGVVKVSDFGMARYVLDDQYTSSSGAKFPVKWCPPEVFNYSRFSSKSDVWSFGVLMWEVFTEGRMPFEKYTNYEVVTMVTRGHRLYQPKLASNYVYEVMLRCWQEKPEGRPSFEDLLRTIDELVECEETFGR
# Method in brief: (§1)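 Percent residual kinase activity versus DMSO is reported. Conditions: compound at 10 μM, ATP at 10 μM, n = 2.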
# [2] = biological target: T2, LATS1 (Homo sapiens, UniProt O95835)
# T2 construct: purchased Reaction Biology Corp
# T2 sequence (O95835 1-1130): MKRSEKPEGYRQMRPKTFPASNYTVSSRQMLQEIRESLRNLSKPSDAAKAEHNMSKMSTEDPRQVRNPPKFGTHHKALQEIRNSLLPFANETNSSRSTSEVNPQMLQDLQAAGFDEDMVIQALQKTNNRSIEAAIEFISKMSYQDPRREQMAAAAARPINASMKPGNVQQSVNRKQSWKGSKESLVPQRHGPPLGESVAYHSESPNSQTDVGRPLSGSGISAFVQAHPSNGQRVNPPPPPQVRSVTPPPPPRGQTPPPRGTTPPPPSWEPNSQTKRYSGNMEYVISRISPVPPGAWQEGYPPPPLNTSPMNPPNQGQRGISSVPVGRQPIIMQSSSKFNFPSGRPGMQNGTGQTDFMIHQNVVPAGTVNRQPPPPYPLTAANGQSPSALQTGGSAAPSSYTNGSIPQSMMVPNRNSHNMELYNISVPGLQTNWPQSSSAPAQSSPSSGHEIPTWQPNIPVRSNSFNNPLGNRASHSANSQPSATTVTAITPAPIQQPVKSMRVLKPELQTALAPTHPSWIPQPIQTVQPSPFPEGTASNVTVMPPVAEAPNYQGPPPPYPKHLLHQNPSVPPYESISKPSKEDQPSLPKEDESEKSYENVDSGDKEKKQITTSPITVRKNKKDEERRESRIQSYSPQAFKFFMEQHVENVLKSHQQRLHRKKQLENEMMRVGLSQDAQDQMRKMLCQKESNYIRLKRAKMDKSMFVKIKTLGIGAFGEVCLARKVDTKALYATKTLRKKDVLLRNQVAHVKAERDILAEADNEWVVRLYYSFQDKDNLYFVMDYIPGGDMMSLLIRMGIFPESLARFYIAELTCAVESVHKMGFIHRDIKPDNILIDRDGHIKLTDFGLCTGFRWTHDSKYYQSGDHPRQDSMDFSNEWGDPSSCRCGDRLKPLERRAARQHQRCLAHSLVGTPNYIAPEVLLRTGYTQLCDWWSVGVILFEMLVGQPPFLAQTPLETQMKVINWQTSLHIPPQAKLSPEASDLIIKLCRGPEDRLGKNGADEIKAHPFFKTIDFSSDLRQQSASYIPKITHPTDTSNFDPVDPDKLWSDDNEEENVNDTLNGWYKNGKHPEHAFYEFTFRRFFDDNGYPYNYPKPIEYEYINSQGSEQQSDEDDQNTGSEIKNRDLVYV
# Method in brief: as §1
# [3] = biological target: T3, MRCKb/CDC42BPB (Homo sapiens, UniProt Q9Y5S2)
# T3 construct: purchased Reaction Biology Corp
# T3 sequence (Q9Y5S2 whole entry): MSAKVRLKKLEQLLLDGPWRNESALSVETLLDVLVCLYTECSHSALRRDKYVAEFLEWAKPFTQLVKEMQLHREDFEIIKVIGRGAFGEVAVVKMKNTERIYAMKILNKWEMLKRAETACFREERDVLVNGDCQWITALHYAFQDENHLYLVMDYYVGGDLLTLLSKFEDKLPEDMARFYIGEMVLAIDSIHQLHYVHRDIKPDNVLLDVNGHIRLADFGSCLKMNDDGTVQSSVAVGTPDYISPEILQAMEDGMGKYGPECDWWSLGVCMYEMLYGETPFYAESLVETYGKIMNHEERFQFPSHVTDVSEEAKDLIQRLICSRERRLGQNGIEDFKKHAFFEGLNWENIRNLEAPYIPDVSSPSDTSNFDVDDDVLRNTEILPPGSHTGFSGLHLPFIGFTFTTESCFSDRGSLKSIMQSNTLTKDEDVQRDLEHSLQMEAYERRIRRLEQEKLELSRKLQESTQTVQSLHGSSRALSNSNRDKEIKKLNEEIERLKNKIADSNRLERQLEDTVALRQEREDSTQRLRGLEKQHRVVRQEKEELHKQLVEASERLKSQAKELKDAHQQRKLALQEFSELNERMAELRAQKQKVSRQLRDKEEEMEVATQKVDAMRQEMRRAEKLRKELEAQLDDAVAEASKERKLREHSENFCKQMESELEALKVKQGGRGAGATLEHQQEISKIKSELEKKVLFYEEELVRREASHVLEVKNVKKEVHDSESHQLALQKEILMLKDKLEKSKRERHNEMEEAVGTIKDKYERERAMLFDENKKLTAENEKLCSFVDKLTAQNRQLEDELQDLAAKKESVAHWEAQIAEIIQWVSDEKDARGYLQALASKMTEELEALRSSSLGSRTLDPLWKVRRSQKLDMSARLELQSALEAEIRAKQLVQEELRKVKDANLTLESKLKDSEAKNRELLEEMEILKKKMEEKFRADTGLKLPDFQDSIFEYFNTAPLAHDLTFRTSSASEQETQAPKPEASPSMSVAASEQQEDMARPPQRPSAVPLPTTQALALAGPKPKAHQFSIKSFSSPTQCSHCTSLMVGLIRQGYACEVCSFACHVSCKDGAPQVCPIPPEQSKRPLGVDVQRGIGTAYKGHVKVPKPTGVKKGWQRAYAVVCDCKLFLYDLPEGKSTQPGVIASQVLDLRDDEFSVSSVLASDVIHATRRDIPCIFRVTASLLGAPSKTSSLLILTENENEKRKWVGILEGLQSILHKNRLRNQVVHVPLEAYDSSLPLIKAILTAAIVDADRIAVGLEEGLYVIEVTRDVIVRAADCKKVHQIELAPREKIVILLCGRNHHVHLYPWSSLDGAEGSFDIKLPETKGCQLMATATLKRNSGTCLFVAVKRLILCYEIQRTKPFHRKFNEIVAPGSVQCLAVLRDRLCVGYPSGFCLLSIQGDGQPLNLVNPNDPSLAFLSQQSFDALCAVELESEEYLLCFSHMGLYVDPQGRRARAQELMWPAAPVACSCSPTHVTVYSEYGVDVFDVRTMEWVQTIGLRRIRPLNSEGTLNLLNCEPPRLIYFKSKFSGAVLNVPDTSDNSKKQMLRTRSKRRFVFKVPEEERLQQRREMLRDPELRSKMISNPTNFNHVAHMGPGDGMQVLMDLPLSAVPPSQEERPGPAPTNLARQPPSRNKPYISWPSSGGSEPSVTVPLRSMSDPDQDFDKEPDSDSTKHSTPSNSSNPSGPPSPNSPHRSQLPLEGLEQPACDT
# Method in brief: as §1
# [4] = biological target: T4, EPHB4 (Homo sapiens, UniProt P54760)
# T4 construct: purchased Reaction Biology Corp
# T4 sequence (P54760 16-987): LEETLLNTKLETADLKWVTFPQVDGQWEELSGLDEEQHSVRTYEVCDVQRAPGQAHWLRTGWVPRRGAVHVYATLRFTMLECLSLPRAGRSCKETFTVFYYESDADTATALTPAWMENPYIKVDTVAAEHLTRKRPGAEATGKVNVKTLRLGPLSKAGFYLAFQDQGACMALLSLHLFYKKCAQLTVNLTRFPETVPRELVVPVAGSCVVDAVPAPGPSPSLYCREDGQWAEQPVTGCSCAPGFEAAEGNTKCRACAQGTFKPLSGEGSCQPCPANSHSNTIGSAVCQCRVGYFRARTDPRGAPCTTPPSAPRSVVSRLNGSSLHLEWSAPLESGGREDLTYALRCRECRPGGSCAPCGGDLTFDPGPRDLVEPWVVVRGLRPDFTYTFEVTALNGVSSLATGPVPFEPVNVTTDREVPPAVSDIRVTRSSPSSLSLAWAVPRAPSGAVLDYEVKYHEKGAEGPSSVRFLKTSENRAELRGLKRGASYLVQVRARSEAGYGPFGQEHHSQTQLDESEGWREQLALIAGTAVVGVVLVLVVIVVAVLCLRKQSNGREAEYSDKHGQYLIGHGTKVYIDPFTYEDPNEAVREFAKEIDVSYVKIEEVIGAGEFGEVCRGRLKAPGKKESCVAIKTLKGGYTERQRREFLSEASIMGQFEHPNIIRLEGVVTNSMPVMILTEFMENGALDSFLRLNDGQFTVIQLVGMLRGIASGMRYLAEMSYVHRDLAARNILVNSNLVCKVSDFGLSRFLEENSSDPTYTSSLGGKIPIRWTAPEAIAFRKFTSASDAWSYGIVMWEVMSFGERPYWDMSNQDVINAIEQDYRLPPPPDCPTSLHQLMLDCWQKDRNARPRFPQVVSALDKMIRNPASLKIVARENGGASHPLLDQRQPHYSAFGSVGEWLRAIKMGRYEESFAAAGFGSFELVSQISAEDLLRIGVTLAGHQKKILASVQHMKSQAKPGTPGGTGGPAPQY
# Method in brief: as §1
# [5] = read-out: % Enzyme Activity (relative to DMSO controls) AVG
# [6] = read-out: % Enzyme Activity (relative to DMSO controls) Data 1
# [7] = read-out: % Enzyme Activity (relative to DMSO controls) Data 2
compound,measurement,setting,value
CC(C)(C)C(=O)N1N=CC[C@H]1c1ccccc1 [GSK′963],remaining activity at 10 µM,[1]; [5],104%
same,remaining activity at 10 µM,[1]; [6],98.7%
same,remaining activity at 10 µM,[1]; [7],109%
same,remaining activity at 10 µM,[2]; [5],103%
same,remaining activity at 10 µM,[2]; [6],103%
same,remaining activity at 10 µM,[2]; [7],102%
same,remaining activity at 10 µM,[3]; [5],106%
same,remaining activity at 10 µM,[3]; [6],109%
same,remaining activity at 10 µM,[3]; [7],102%
same,remaining activity at 10 µM,[4]; [5],101%
same,remaining activity at 10 µM,[4]; [6],100%
same,remaining activity at 10 µM,[4]; [7],101%
